One experiment has as its target T1, HDAC7 (Homo sapiens, UniProt Q8WUI4).
T1 sequence (Q8WUI4 1-952): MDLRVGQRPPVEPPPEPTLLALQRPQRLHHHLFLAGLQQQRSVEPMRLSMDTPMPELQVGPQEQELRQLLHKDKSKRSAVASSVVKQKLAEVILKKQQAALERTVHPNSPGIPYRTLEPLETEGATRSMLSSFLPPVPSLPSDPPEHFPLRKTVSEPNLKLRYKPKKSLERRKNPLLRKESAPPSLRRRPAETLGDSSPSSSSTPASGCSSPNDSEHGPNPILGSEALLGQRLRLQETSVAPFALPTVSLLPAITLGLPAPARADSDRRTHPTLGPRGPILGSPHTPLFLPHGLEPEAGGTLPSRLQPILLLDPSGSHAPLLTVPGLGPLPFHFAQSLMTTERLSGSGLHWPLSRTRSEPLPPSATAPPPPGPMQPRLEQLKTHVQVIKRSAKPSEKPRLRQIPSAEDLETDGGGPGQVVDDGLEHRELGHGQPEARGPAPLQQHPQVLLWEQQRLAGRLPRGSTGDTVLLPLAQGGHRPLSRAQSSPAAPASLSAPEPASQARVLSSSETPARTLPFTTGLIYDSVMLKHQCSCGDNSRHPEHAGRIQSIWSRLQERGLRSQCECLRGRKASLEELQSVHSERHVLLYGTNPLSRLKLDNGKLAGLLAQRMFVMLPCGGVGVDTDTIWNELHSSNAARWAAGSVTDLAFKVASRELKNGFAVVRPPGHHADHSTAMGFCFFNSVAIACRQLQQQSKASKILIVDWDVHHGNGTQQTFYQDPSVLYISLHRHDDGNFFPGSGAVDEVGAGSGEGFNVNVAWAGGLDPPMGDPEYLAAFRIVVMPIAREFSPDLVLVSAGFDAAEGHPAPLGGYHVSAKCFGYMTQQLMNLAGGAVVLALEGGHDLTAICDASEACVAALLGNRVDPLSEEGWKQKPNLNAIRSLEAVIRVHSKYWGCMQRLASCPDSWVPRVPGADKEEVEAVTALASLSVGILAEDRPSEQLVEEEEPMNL
As to the kind of experiment: HDAC biochemical activity measurement (fluorescent substrate deacetylation).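 Further: fluorogenic deacetylation assay using acetyl-lysine substrate at 20 µM, enzyme and compound incubated 30 min at 37 °C, then developer added, fluorescence read at 360/460 nm.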 The following applies: HDAC7; 37° C. 30 minutes.

The subject of experiment [1] is A549 (human lung cancer cells). The experiment is described as follows: MTT cancer cell growth inhibition. As to conditions: Homo sapiens, A549, 72 h, MTT, 72 hours incubation, read-out: GI50 A54. It counts as cell-based. The essentials: (§1)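 Using a 72 h MTT format, triplicate wells of 1500 cells received compound concentrations from 10^−5 to 10^−10 M. Formazan was read at 570 nm after DMSO dissolution, and GI50 was derived from viability.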

The test system of experiment [2] is BGC-823 (human gastric cancer cells). As to the kind of experiment: MTT cancer cell growth inhibition. It counts as cell-based. The following applies: Homo sapiens, BGC-823, 72 h, MTT, 72 hours incubation, read-out: GI50 BG. The essentials: as §1
Experiment [3] has as its system Bel-7402 (human hepatoma cells). The experiment is described as follows: MTT cancer cell growth inhibition. As to conditions: Homo sapiens, Bel-7402, 72 h, MTT, 72 hours incubation, Bel-7402 cells; read-out: GI50 Bel-7402. It counts as cell-based. The essentials: as §1
Experiment [4] deals with DU145 (human prostate cancer cells). The experiment is described as follows: MTT cancer cell growth inhibition. The format is cell-based. As to conditions: Homo sapiens, DU-145, 72 h, MTT, 72 hours incubation, read-out: GI50 Du1. The essentials: as §1
The test system of experiment [5] is H1975 (non-small cell lung adenocarcinoma). As to the kind of experiment: MTT cancer cell growth inhibition. As to conditions: Homo sapiens, NCI-H1975, 72 h, MTT, 72 hours incubation, H1975 cells; read-out: GI50 H1975. The format is cell-based. The essentials:
as §1

The subject of experiment [6] is HCC827 (human non-small cell lung cancer cells). As to the kind of experiment: MTT cancer cell growth inhibition. The following applies: Homo sapiens, HCC827, 72 h, MTT, 72 hours incubation, HCC827 cells; read-out: GI50 HCC827. The format is cell-based. The essentials: as §1
Experiment [7] relates to HT1080 (human fibrosarcoma cells). As to the kind of experiment: MTT cancer cell growth inhibition. The format is cell-based. As to conditions: Homo sapiens, HT-1080, 72 h, MTT, 72 hours incubation, read-out: GI50 HT1. The essentials:
as §1

Experiment [8] deals with Hela (human cervical cancer cells). As to the kind of experiment: MTT cancer cell growth inhibition. As to conditions: Homo sapiens, HeLa, 72 h, MTT, 72 hours incubation, read-out: GI50 Hela. It counts as cell-based. The essentials:
as §1

The subject of experiment [9] is Huh-7 (human hepatoma cells). The experiment is described as follows: MTT cancer cell growth inhibition. It counts as cell-based. The following applies: Homo sapiens, Huh-7, 72 h, MTT, 72 hours incubation, Huh-7 cells; read-out: GI50 Huh-7. The essentials: as §1
For experiment [10], the system named is K562 (human leukemia cells). The experiment is described as follows: MTT cancer cell growth inhibition. It counts as cell-based. As to conditions: Homo sapiens, K562, 72 h, MTT, 72 hours incubation, K562 cells; read-out: GI50 K562. The essentials:
as §1

The test system of experiment [11] is KBM-5 (human chronic myelogenous leukemia). As to the kind of experiment: MTT cancer cell growth inhibition. It counts as cell-based. The following applies: Homo sapiens, KBM5, 72 h, MTT, 72 hours incubation, KBM-5 cells; read-out: GI50 KBM-5. The essentials:
as §1

The subject of experiment [12] is KBM5-T315I (human chronic myelogenous leukemia). The experiment is described as follows: MTT cancer cell growth inhibition. The format is cell-based. As to conditions: Homo sapiens, 72 h, MTT, 72 hours incubation, KBM5-T315I cells; read-out: GI50 KBM5-T315I. The essentials:
as §1

In experiment [13] the test system is MCF-7 (human breast cancer cells). As to the kind of experiment: MTT cancer cell growth inhibition. The format is cell-based. As to conditions: Homo sapiens, MCF7, 72 h, 72 hours incubation, read-out: GI50 MCF. The essentials:
as §1

The subject of experiment [14] is MDA-MB-231 (breast cancer cells). The experiment is described as follows: MTT cancer cell growth inhibition. It counts as cell-based. As to conditions: Homo sapiens, MDA-MB-231, 72 h, read-out: GI50 MDA-MB-231, MTT, 72 hours incubation, MDA-MB-231 cells. The essentials:
as §1

Experiment [15] relates to MOLT-4 (human acute lymphoblastic leukemia cells). As to the kind of experiment: MTT cancer cell growth inhibition. The format is cell-based. As to conditions: Homo sapiens, MOLT-4, 72 h, MTT, 72 hours incubation, read-out: GI50 Mol. The essentials: as §1
The test system of experiment [16] is N-87 (human gastric cancer cells). The experiment is described as follows: MTT cancer cell growth inhibition. The following applies: Homo sapiens, 72 h, MTT, 72 hours incubation, N-87 cells; read-out: GI50 N-87. It counts as cell-based. The essentials:
as §1

For experiment [17], the system named is PANC-1 (Pac-1, human pancreatic cancer cells). The experiment is described as follows: MTT cancer cell growth inhibition. The format is cell-based. The following applies: Homo sapiens, PANC-1, 72 h, MTT, 72 hours incubation, read-out: GI50 PAN. The essentials:
as §1

The subject of experiment [18] is SGC-7901 (human gastric cancer cells). The experiment is described as follows: MTT cancer cell growth inhibition. The format is cell-based. As to conditions: Homo sapiens, SGC-7901, 72 h, MTT, 72 hours incubation, SGC-7901 cells; read-out: GI50 SGC-7901. The essentials:
as §1

The test system of experiment [19] is U937 (human leukemia cells). The experiment is described as follows: MTT cancer cell growth inhibition. The format is cell-based. As to conditions: Homo sapiens, U-937, 72 h, MTT, 72 hours incubation, read-out: GI50 U93. The essentials: as §1
Experiment [20] relates to lncap (prostate cancer cells). As to the kind of experiment: MTT cancer cell growth inhibition. The following applies: Homo sapiens, LNCaP, 72 h, MTT, 72 hours incubation, read-out: GI50 lnca. It counts as cell-based. The essentials:
as §1

Where two headings read alike, the source gives them in different places.

In general, GI50 refers to the concentration that inhibits growth by half. Turning to `C/C=C1\NC(=O)c2ccc(F)c(n2)CNC(=O)C[C@@H](/C=C/CCS)OC(=O)[C@H](C(C)C)NC1=O` [Compound 108], the “IC50 HDAC7” value on HDAC7 is “no activity”. For the same molecule, the GI50 turned out to be 40 nM in experiment [1]; 20 nM in [2]; 76 nM in experiment [3]; 20 nM in experiment [4]; 33 nM in experiment [5]; 93 nM in experiment [6]. Further, the GI50 amounted to 80 nM in [7]; 70 nM in experiment [8]; 43 nM in experiment [9]; 59 nM in [10]; 11 nM in experiment [11]; 24 nM in experiment [12]. Also, the 50% growth inhibitory concentration (GI50) in [13] is 30 nM; in experiment [14], 49 nM; in [15], 20 nM; in [16], 34 nM; in experiment [17], 80 nM; in experiment [18], 36 nM. Also, the GI50 in experiment [19] came out at 30 nM; in experiment [20], 20 nM.
In the case of `C/C=C1\NC(=O)c2cc(SC)cc(n2)CNC(=O)C[C@@H](/C=C/CCSC(=O)CCC)OC(=O)[C@H](C(C)C)NC1=O` [Compound 160], at HDAC7, the “IC50 HDAC7” value is “no activity”. Besides, the GI50 in experiment [1] (A549 cells) was 30 nM; in experiment [2] (BGC-823 cells) it was 90 nM; in experiment [3], 36 nM; in experiment [4] (DU145 cells), 40 nM; in [5], 71 nM; in experiment [6] it was 16 nM. The GI50 in experiment [7] (HT1080 cells) stood at 40 nM; in experiment [8] (Hela cells), 50 nM; in experiment [9], 42 nM; in [10] it was 42 nM; in experiment [11], 28 nM; in experiment [12] it was 26 nM. The GI50 in [13] (MCF-7 cells) came to 40 nM; in experiment [14] it was 17 nM; in experiment [15] (MOLT-4 cells), 50 nM; in experiment [16] it was 49 nM; in experiment [17] (PANC-1 cells), 40 nM; in experiment [18] it was 81 nM. In addition, the GI50 in [19] (U937 cells) and in experiment [20] (lncap cells) was 50 nM in each case.
As to `C/C=C1\NC(=O)c2cc(F)cc(n2)CNC(=O)C[C@@H](/C=C/CCS)OC(=O)[C@H](Cc2cccc3ccccc23)NC1=O` [Compound 125], the “IC50 HDAC7” value on HDAC7 is given as “no activity”. For the same molecule, the GI50 in [1] was 60 nM; in experiment [2], 30 nM; in [3], 57 nM; in [4] it was 30 nM; in [5], 36 nM; in experiment [6], 29 nM. The GI50 in experiment [7] was found to be 40 nM; in experiment [8], 50 nM; in [9], 25 nM; in [10] it was 47 nM; in [11], 64 nM; in [12], 58 nM. Moreover, the GI50 in experiment [13] turned out to be 60 nM; in experiment [14] it was 75 nM; in experiment [15] it was 110 nM; in [16], 31 nM; in [17] it was 120 nM; in [18], 39 nM. For the same molecule, the figures for the GI50 in [19] and in experiment [20] were 50 nM and 110 nM, respectively.
Turning to `C/C=C1\NC(=O)c2ccc(F)c(n2)CCNC(=O)C[C@@H](/C=C/CCSC(C)=O)OC(=O)[C@H](C(C)C)NC1=O` [Compound 105], the “IC50 HDAC7” value against HDAC7 is given as “no activity”. Further, the GI50 was found to be 40 nM in [1]; 10 nM in experiment [2]; 21 nM in experiment [3]; 30 nM in experiment [4]; 97 nM in [5]; 47 nM in experiment [6]. Further, the GI50 is 70 nM in [7]; 50 nM in experiment [8]; 56 nM in experiment [9]; 19 nM in [10]; 23 nM in [11]; 53 nM in [12]. The GI50 was 20 nM in experiment [13]; 86 nM in experiment [14]; 20 nM in experiment [15]; 93 nM in experiment [16]; 70 nM in experiment [17]; 16 nM in experiment [18]. The GI50 in experiment [19] was 50 nM; in experiment [20] it was 20 nM.

(Values after US10065990B2, “Cyclic peptide compound, and preparation method, pharmaceutical composition and use thereof” (HANGZHOU GUANYU BIO-MEDICAL CO., LTD, priority 2013, dated 2018).)
